Data taken from article PMC8267566, “Human GPR17 missense variants identified in metabolic disease patients have distinct downstream signaling profiles” (The Journal of Biological Chemistry, 2021).
pEC50: −log10 of the molar value.

What was measured:
Format in all cases: cell-based
[1] = molecular target: T1, hGPR17L-R248Q (Homo sapiens, UniProt Q13304, R248Q); assay: GloSensor stimulatory cAMP assay with pertussis toxin pretreatment
T1 construct: expressed in transfected cells; host or cells: HEK293 (ATCC CRL-1573), transient transfection
T1 sequence (Q13304 whole entry R248Q): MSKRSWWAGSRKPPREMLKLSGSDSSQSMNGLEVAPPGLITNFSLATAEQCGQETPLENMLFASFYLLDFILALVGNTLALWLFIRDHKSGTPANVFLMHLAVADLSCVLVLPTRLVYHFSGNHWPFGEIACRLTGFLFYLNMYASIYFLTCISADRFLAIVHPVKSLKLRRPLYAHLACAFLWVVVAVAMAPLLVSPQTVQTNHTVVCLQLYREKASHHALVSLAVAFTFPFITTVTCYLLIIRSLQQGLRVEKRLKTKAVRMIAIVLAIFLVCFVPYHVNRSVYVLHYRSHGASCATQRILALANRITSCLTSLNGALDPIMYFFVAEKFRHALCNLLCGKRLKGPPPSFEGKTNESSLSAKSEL
Protocol: (§1) For agonist-mediated stimulatory cAMP assays, HEK293 cells were seeded and transfected as noted above. Cells were treated with 100 ng/ml pertussis toxin overnight (Sigma-Aldrich P2980). Twenty-four hours posttransfection, growth medium and transfection mix were aspirated and replaced with 100 μl/well equilibration medium (2% Promega GloSensor cAMP reagent [E1291; Promega Corporation] in CO2-independent medium) containing 100 ng/ml pertussis toxin and incubated at room temperature for 2 h. Baseline luminescence was read every 2 min on a Molecular Devices SpectraMax iD5 plate reader (Molecular Devices) at ambient room temperature for 8 min. Subsequently, 10 μl/well MDL29,951 diluted in assay buffer (HBSS, 20 mM HEPES, pH 7.2) was added and luminescence was read every 2 min for 16 min. Within each well, the luminescence values for each time point were normalized to their average baseline luminescence values. The average luminescence values for the time points between 8 and 16 min after MDL29,951 addition were expressed as a percentage of the maximum response observed for hGPR17L-WT.

[2] = molecular target: T2, hGPR17L-R301H (Homo sapiens, UniProt Q13304, R301H); assay: as above
T2 construct: expressed in transfected cells; host or cells: HEK293 (ATCC CRL-1573)
T2 sequence (Q13304 whole entry R301H): as the sequence (Q13304 whole entry R248Q) above, with Q248R, R301H counted along it
Protocol: as §1

[3] = molecular target: T3, hGPR17L-V103M (Homo sapiens, UniProt Q13304, V103M); assay: as above
T3 construct: expressed in transfected cells; host or cells: HEK293 (ATCC CRL-1573), transient transfection
T3 sequence (Q13304 whole entry V103M): as the sequence (Q13304 whole entry R248Q) above, with V103M, Q248R counted along it
Protocol: as §1

[4] = molecular target: T4, hGPR17L-A131T (Homo sapiens, UniProt Q13304, A131T); assay: as above
T4 construct: expressed in transfected cells; host or cells: HEK293 (ATCC CRL-1573), transient transfection
T4 sequence (Q13304 whole entry A131T): as the sequence (Q13304 whole entry R248Q) above, with A131T, Q248R counted along it
Protocol: as §1

[5] = molecular target: T5, hGPR17L-G354V (Homo sapiens, UniProt Q13304, G354V); assay: as above
T5 construct: expressed in transfected cells; host or cells: HEK293 (ATCC CRL-1573)
T5 sequence (Q13304 whole entry G354V): as the sequence (Q13304 whole entry R248Q) above, with Q248R, G354V counted along it
Protocol: as §1

[6] = molecular target: T6, hGPR17L-F43L (Homo sapiens, UniProt Q13304, F43L); assay: as above
T6 construct: expressed in transfected cells; host or cells: HEK293 (ATCC CRL-1573), transient transfection
T6 sequence (Q13304 whole entry F43L): as the sequence (Q13304 whole entry R248Q) above, with F43L, Q248R counted along it
Protocol: as §1

[7] = molecular target: T7, hGPR17L-D105N (Homo sapiens, UniProt Q13304, D105N)
T7 construct: expressed in transfected cells; host or cells: HEK293 (ATCC CRL-1573), transient transfection
T7 sequence (Q13304 whole entry D105N): as the sequence (Q13304 whole entry R248Q) above, with D105N, Q248R counted along it
Protocol: as §1

[8] = molecular target: T8, hGPR17L-V96M (Homo sapiens, UniProt Q13304, V96M)
T8 construct: expressed in transfected cells; host or cells: HEK293 (ATCC CRL-1573), transient transfection
T8 sequence (Q13304 whole entry V96M): as the sequence (Q13304 whole entry R248Q) above, with V96M, Q248R counted along it
Protocol: as §1

[9] = molecular target: T9, hGPR17L-WT (Homo sapiens, UniProt Q13304)
T9 construct: expressed in transfected cells; host or cells: HEK293 (ATCC CRL-1573), transient transfection of pcDNA3-HA-hGPR17L
T9 sequence (Q13304 whole entry): as the sequence (Q13304 whole entry R248Q) above, with Q248R counted along it
Protocol: as §1

[10] = molecular target: T10, hGPR17L-G136S (Homo sapiens, UniProt Q13304, G136S)
T10 construct: expressed in transfected cells; host or cells: HEK293 (ATCC CRL-1573), transient transfection
T10 sequence (Q13304 whole entry G136S): as the sequence (Q13304 whole entry R248Q) above, with G136S, Q248R counted along it
Protocol: as §1

[11] = molecular target: T11, hGPR17L-D105N-Tango (Homo sapiens, UniProt Q13304, D105N); assay: Tango β-arrestin recruitment assay
T11 construct: Tango fusion module; host or cells: HTLA (HEK293T-derived)
T11 sequence (Q13304 whole entry D105N, the tested form may be a part): as the sequence (Q13304 whole entry R248Q) above, with D105N, Q248R counted along it
Protocol: (§2) HTLA cells were seeded at 10,000 cells/well into white, opaque, poly-D-lysine-coated 96-well plates and transfected with hGPR17L-WT-Tango or hGPR17L-variant-Tango plasmids the following day using lipofectamine 3000 according to the manufacturer's protocol. The next day, cells were incubated at 37 °C and 5% CO2 in serum-free growth media for a 4 h serum starvation. MDL29,951 was then diluted in assay buffer (HBSS, 20 mM HEPES, pH 7.2), added to the cells, and incubated for 16 h at 37 °C and 5% CO2. Drug treatment was decanted and 80 μl/well of Promega Bright-Glo reagent (diluted 20× in assay buffer) (E2610; Promega Corporation) was added and incubated at room temperature for 15 min. Luminescence (1 s per well integration time) was read on a Molecular Devices SpectraMax iD5 plate reader.

[12] = molecular target: T12, hGPR17L-R301H-Tango (Homo sapiens, UniProt Q13304, R301H); assay: Tango β-arrestin recruitment assay
T12 construct: Tango fusion module; host or cells: HTLA (HEK293T-derived)
T12 sequence (Q13304 whole entry R301H, the tested form may be a part): as the sequence (Q13304 whole entry R248Q) above, with Q248R, R301H counted along it
Protocol: as §2

[13] = molecular target: T13, hGPR17L-WT-Tango (Homo sapiens, UniProt Q13304); assay: Tango β-arrestin recruitment assay
T13 construct: Tango fusion module; host or cells: HTLA (HEK293T-derived)
T13 sequence (Q13304 whole entry, the tested form may be a part): as the sequence (Q13304 whole entry R248Q) above, with Q248R counted along it
Protocol: as §2

[14] = molecular target: T14, hGPR17L-R248Q-Tango (Homo sapiens, UniProt Q13304, R248Q); assay: Tango β-arrestin recruitment assay
T14 construct: Tango fusion module; host or cells: HTLA (HEK293T-derived)
T14 sequence (Q13304 whole entry R248Q, the tested form may be a part): as the sequence (Q13304 whole entry R248Q) above
Protocol: as §2

[15] = molecular target: T15, hGPR17L-G354V-Tango (Homo sapiens, UniProt Q13304, G354V); assay: Tango β-arrestin recruitment assay
T15 construct: Tango fusion module; host or cells: HTLA (HEK293T-derived)
T15 sequence (Q13304 whole entry G354V, the tested form may be a part): as the sequence (Q13304 whole entry R248Q) above, with Q248R, G354V counted along it
Protocol: as §2

[16] = molecular target: T16, hGPR17L-A131T-Tango (Homo sapiens, UniProt Q13304, A131T); assay: Tango β-arrestin recruitment assay
T16 construct: Tango fusion module; host or cells: HTLA (HEK293T-derived)
T16 sequence (Q13304 whole entry A131T, the tested form may be a part): as the sequence (Q13304 whole entry R248Q) above, with A131T, Q248R counted along it
Protocol: as §2

[17] = molecular target: T17, hGPR17L-V96M-Tango (Homo sapiens, UniProt Q13304, V96M); assay: Tango β-arrestin recruitment assay; details: HTLA cells, MDL29,951 0.5 nM to 30 μM
T17 construct: Tango fusion module; host or cells: HTLA (HEK293T-derived)
T17 sequence (Q13304 whole entry V96M, the tested form may be a part): as the sequence (Q13304 whole entry R248Q) above, with V96M, Q248R counted along it
Protocol: as §2

[18] = molecular target: T18, hGPR17L-G136S-Tango (Homo sapiens, UniProt Q13304, G136S); assay: Tango β-arrestin recruitment assay; details: HTLA cells, 30 μM MDL29,951
T18 construct: Tango fusion module; host or cells: HTLA (HEK293T-derived)
T18 sequence (Q13304 whole entry G136S, the tested form may be a part): as the sequence (Q13304 whole entry R248Q) above, with G136S, Q248R counted along it
Protocol: as §2

[19] = molecular target: T19, hGPR17L-V103M-Tango (Homo sapiens, UniProt Q13304, V103M); assay: Tango β-arrestin recruitment assay
T19 construct: Tango fusion module; host or cells: HTLA (HEK293T-derived)
T19 sequence (Q13304 whole entry V103M, the tested form may be a part): as the sequence (Q13304 whole entry R248Q) above, with V103M, Q248R counted along it
Protocol: as §2

[20] = read-out: Stimulatory cAMP EC50
[21] = read-out: β-arrestin recruitment EC50, HTLA cells

O=C(O)CCc1c(C(=O)O)[nH]c2cc(Cl)cc(Cl)c12 [MDL29,951]
Stimulatory cAMP pEC50 ± SEM [1]: 5.22 ± 0.01 | Stimulatory cAMP Efficacy (% of WT Emax) ([1]; hGPR17L-R248Q, HEK293, 100 ng/ml pertussis toxin overnight): 41 ± 1.7 % of WT Emax | pEC50 [1, 20]: 5.21 | Stimulatory cAMP pEC50 ± SEM [2]: 4.84 ± 0.12 | Stimulatory cAMP Efficacy (% of WT Emax) ([2]; hGPR17L-R301H, HEK293, 100 ng/ml pertussis toxin overnight): 68 ± 11 % of WT Emax | pEC50 [2, 20]: 4.80 | Stimulatory cAMP pEC50 ± SEM [3]: 4.33 ± 0.36 | loss of potency, fold shift in EC50 vs hGPR17L-WT (stimulatory cAMP) [3]: 3–7 fold | Stimulatory cAMP Efficacy (% of WT Emax) ([3]; hGPR17L-V103M, HEK293, 100 ng/ml pertussis toxin overnight): 150 ± 48 % of WT Emax | pEC50 [3, 20]: 4.33 | Stimulatory cAMP pEC50 ± SEM [4]: 4.72 ± 0.05 | loss of potency, fold shift in EC50 vs hGPR17L-WT (stimulatory cAMP) [4]: 3–7 fold | Stimulatory cAMP Efficacy (% of WT Emax) ([4]; hGPR17L-A131T, HEK293, 100 ng/ml pertussis toxin overnight): 105 ± 21 % of WT Emax | pEC50 [4, 20]: 4.72 | Stimulatory cAMP pEC50 ± SEM [5]: 4.88 ± 0.12 | Stimulatory cAMP Efficacy (% of WT Emax) ([5]; hGPR17L-G354V, HEK293, 100 ng/ml pertussis toxin overnight): 105 ± 23 % of WT Emax | pEC50 [5, 20]: 4.85 | Stimulatory cAMP pEC50 ± SEM [6]: 5.21 ± 0.13 | Stimulatory cAMP Efficacy (% of WT Emax) ([6]; hGPR17L-F43L, HEK293, 100 ng/ml pertussis toxin overnight): 99 ± 20 % of WT Emax | pEC50 [6, 20]: 5.21 | stimulatory cAMP response [7]: unable to promote stimulatory cAMP responses | stimulatory cAMP response [8]: unable to promote stimulatory cAMP responses | Stimulatory cAMP Efficacy (% of WT Emax) [9]: 100 % of WT Emax | Stimulatory cAMP pEC50 ± SEM [9]: 5.18 ± 0.04 | maximum stimulatory cAMP response [9]: 1.21 ± 0.24 ΔRLU/RLU | pEC50 [9, 20]: 5.18 | stimulatory cAMP response [10]: unable to promote stimulatory cAMP responses | β-arrestin recruitment Efficacy (% of WT span) ([11]; HTLA cells): 100 ± 5.0 % of WT span | β-arrestin recruitment pEC50 ± SEM ([11]; HTLA cells): 6.53 ± 0.03 | pEC50 [11, 21]: 6.54 | β-arrestin recruitment Efficacy (% of WT span) ([12]; HTLA cells): 69 ± 9.0 % of WT span | β-arrestin recruitment pEC50 ± SEM ([12]; HTLA cells): 6.55 ± 0.04 | pEC50 [12, 21]: 6.55 | maximum β-arrestin recruitment response ([13]; HTLA cells): 1.78 ± 0.09 fold over baseline | β-arrestin recruitment Efficacy (% of WT span) ([13]; HTLA cells): 100 % of WT span | β-arrestin recruitment pEC50 ± SEM ([13]; HTLA cells): 7.02 ± 0.02 | pEC50 [13, 21]: 7.02 | β-arrestin recruitment Efficacy (% of WT span) ([14]; HTLA cells): 73 ± 16 % of WT span | β-arrestin recruitment pEC50 ± SEM ([14]; HTLA cells): 7.55 ± 0.16 | pEC50 [14, 21]: 7.55 | β-arrestin recruitment pEC50 ± SEM ([15]; HTLA cells): 6.96 ± 0.04 | pEC50 [15, 21]: 6.96 | β-arrestin recruitment Efficacy (% of WT span) ([16]; HTLA cells): 97 ± 5.2 % of WT span | β-arrestin recruitment pEC50 ± SEM ([16]; HTLA cells): 6.55 ± 0.06 | pEC50 [16, 21]: 6.55 | agonist-stimulated β-arrestin recruitment [17]: no apparent agonist-stimulated β-arrestin recruitment | agonist-stimulated β-arrestin recruitment [18]: only a modest response | β-arrestin recruitment Efficacy (% of WT span) ([19]; HTLA cells): 84 ± 13 % of WT span | β-arrestin recruitment pEC50 ± SEM ([19]; HTLA cells): 6.69 ± 0.05 | pEC50 [19, 21]: 6.68
